Earlier results, collected in patent US10617778B2, “Self-sterilizing package and methods for making and using the same” (priority 2014, dated 2020).

System: humans

[O][Cl+][O-] [chlorine dioxide]
vapor concentration at which the gas can be toxic: greater than 0.3 ppm
